What was measured:
CS-induced ALI mice = assay: CS-induced lung injury model: in vivo cytokine assay by ELISA in BALF; set-up: species or system Balb/c mice; details: p<0.01
Protocol: Model preparation: The mice were randomly divided into 5 groups (12 mice in each group), which were the control group (the mice were exposed to fresh air), the saline group (the mice were exposed to cigarette smoke), dexamethasone (Dex) group (1 mg/kg) (the mice were exposed to cigarette smoke), CT-NA 10 mg/kg group and CT-NA 30 mg/kg group (the mice were exposed to cigarette smoke). According to the grouping, the mice were intragastrically administered saline, Dex and CT-NA, respectively. […] 24 hrs after the last exposure to the cigarette smoke, the partial pressure of oxygen (PO2) of all mice was measured by the Moor VMS-OXY™ measuring instrument, which was used to measure the oxygenated/deoxygenated hemoglobin concentration and oxygen saturation (percentage) in the microcirculation at the wavelength range of 500 to 650 nm. […] The expression levels of pro-inflammatory cytokines (TNF-α, IL-1β, IL-6), chemokines (KC) and anti-inflammatory cytokines (IL-10) in the BALF supernatant were determined using respective ELISA determination kits according to the instruction manual. After the optical density at 450 nm was measured, the expression of cytokines was calculated via the standard curve.

neutrophils = assay: PGD2-induced neutrophils migration, Boyden chamber assay (Example 1); assay type: cell-based, mice; details: pretreatment CT-NA 1 and 10 μM (p<0.01) or OC459; PGD2 1 μM; 4 hrs
Protocol: The mice were intragastrically administered glycogen (1.5%) at the dose range of 20 ml/kg of body weight. 4 hrs later, the mice were euthanized to isolate neutrophils from the peritoneal lavage. The effect of CT-NA on neutrophils migration was detected by using the Boyden chamber assay kit (3 μm pore size). PGD2 was used as a chemoattractant because the activated PGD2/CRTH2 receptors promoted the migration of neutrophils. Initially, the isolated neutrophils (4×10^5) were diluted in 100 μL HBSS and allowed to migrate toward PGD2 (0.1, 1 and 10 μM) for 4 hrs to find out the suitable PGD2 concentration. Then, the isolated neutrophils (4×10^5) were pretreated with CT-NA (1 and 10 μM), and their migration to PGD2 (1 μM) was evaluated by counting the migrated neutrophils. Moreover, another potent CRTH2 inhibitor OC459 was used to countercheck the outcomes of CT-NA.

RAW 264.7 macrophages = assay: In vitro cytokines assay via ELISA, CSE- and PGD2-stimulated macrophages; assay type: cell-based, mouse; details: CT-NA 10 and 100 μM, p<0.01
Protocol: The cigarette smoke generated from 3R4F research grade cigarettes was passed through 50 ml PBS by a vacuum pump. Five cigarettes were used to make smoke that passed 50 ml PBS, and each cigarette was lit for 5 minutes. The control solution was prepared in the absence of cigarettes by using a similar method. After extraction, CSE was stored at −80° C.
RAW 264.7 macrophages were added to two 12-well plates. Thereafter, the medium of the 12-well plate was replaced with serum-free RPMI-1640 medium, and the macrophages were incubated for 10-12 hrs and then exposed to CT-NA (10 and 100 μM) for 1 hour. One hour later, one 12-well plate was treated with CSE (4%) and the other with PGD2 (10 μM) for 24 hrs. After the treatment, the supernatant of the treated cells was collected to measure the protein levels of TNF-α, IL-1β, IL-6, KC and IL-10 extracellularly secreted using ELISA kits according to the method of the instructions. Subsequently, RNA samples from each treated plate were extracted and reverse-transcripted into cDNA with HiScript5xQRTSuperMix, and then subjected to RT-PCR. RT-PCR was performed with the BioRad CFX96 Touch™ Real-Time PCR Detection System (BioRad, USA) using AceQ® qPCR SYBR Green Master Mix. And the threshold cycle numbers were obtained using BioRad CFX Manager Software. The primers used for RT-PCR reaction were shown in Table 1. β-actin was used as an internal control. The RT-PCR reactions were triplicated and the relative expression of target mRNA was normalized by the respective β-actin.

LPS-induced ALI mice = assay: LPS-induced ALI model: lung MPO activity assay; assay type: in vivo, Balb/c mice; details: CT-NA 10 or 30 mg/kg (P<0.01, dose dependence), Dex 1 mg/kg (P<0.01)
Protocol: Specific pathogen-free (SPF) Balb/c mice (♂/♀; 20-26 g; 8 weeks old) were purchased from Shanghai SIPPR-BK Experimental Animal Co., Ltd. Mice were kept in an isolated ventilated cage in an environment of 40-60% humidity, 24±2° C., and 12 hrs/12 hrs dark-light cycle, and had free access to food and water. The method for preparing the LPS-induced ALI model was simply described as follows. The mice were randomly divided into a control group (12 mice) and an LPS group (48 mice). The LPS group (48 mice) was further divided into four subgroups (12 mice in each subgroup). The unanaesthetized mice in the four subgroups of LPS were intragastrically administered with normal saline (NS), CT-NA at 10 mg/kg or 30 mg/kg, and Dex at 1 mg/kg, respectively. One hour later, the mice were anesthetized with sodium pentobarbital (intraperitoneal injection at 40 mg/kg), and then subjected to intratracheal instillation of NS to control group and LPS (4 mg/kg) to all LPS subgroups. […] 24 hrs after LPS challenge, the oxygen saturation (SO2) of all mice was measured by a Moor VMS-OXY™ instrument which measured SO2 (%) in the microcirculation at the wavelength range of 500 to 650 nm.
The MPO activity assay procedure was as follows. […] Then MPO activity was determined by measuring the changes in absorbance at 460 nm via the standard curves by using MPO assay kits.

[1] = system: NF-κB signalling pathway in RAW264.7 macrophages; assay: Western blotting of NF-κB signalling pathway, RAW264.7; assay type: cell-based, mouse; details: CT-NA 0.5, 1.0, 10, or 100 μM, LPS (100 ng/ml)
Protocol: The method for total protein extraction and Western blotting determination was as follows. The lung tissue was homogenized in RIPA buffer (0.5M Tris-HCl, pH 7.4, 1.5M NaCl, 2.5% deoxycholic acid, 10% NP-40, 10 mM EDTA) containing protease and phosphatase inhibitors (Sigma-Aldrich, St. Louis, Mo.). RAW264.7 macrophages were seeded into two 6-well plates at 70-80% confluence. After overnight starvation with serum-free RPMI-1640 medium, RAW264.7 macrophages were pretreated with CT-NA (0.5, 1, 10 and 100 μM) for 1 hour. Thereafter, one 6-well plate was treated with LPS (100 ng/ml) for 1 hour, and the other was treated with PGD2 (10 μM) for 1 hour. After washing three times with PBS, the cells were directly lysed for 30 minutes with shaking in RIPA buffer containing protease and phosphatase inhibitors in an ice environment. Then, the lysate was centrifuged at 12,300×g for 15 minutes at 4° C., and the supernatant was collected. […] was performed to measure protein concentration. Equal amounts of protein (30 μg) were resolved on 12% SDS-PAGE and transferred to 0.45 um polyvinylidene fluoride (PVDF) membranes (Millipore, Bedford, Mass.). The membranes were blocked with 5% (wt/vol) skimmed milk powder at room temperature for 1-2 hrs to reduce non-specific binding. […]

## CN([C@@H]1CCc2c(CC(=O)[O-])c3cccnc3n2C1)S(=O)(=O)c1ccc(F)cc1.[Na+] [Sodium salt hydrate]
CS-induced ALI mice; CT-NA 10 and 30 mg/kg intragastric
  CS-induced overexpression of TNF-α, IL-1β, IL-6 and KC in BALF: effectively reduced
CS-induced ALI mice; CT-NA treatment
  CS-induced inhibition of IL-10 in BALF: reversed
neutrophils
  PGD2-induced neutrophils migration: significantly attenuated
RAW 264.7 macrophages; 1 h pretreatment, CSE (4%) 24 hrs
  protein levels of IL-1β, IL-6, TNF-α and KC, CSE-stimulated: inhibited
RAW 264.7 macrophages; 1 h pretreatment, PGD2 (10 μM) 24 hrs
  protein levels of IL-1β, IL-6, TNF-α and KC, PGD2-stimulated: inhibited
RAW 264.7 macrophages; CSE (4%), dose-dependent
  CSE-induced inhibition of IL-10, protein: reversed
RAW 264.7 macrophages; PGD2 (10 μM), dose-dependent
  PGD2-induced inhibition of IL-10, protein: reversed
LPS-induced ALI mice
  MPO activity in lung tissues: remarkably reduced
[1]
  degradation of IκBα and P65 induced by LPS: strongly reversed
[1]; dose-dependent
  LPS-induced IκBα and P65 activation: reduced

— patent US20220098197A1, “SALTS OF HETEROCYCLIC COMPOUND AND USE THEREOF” (priority 2019, published 2022)
